Laboratory results from patent US11083725B2 (priority 2014, dated 2021).

Test system: NHBE cells
Assay: Biolog metabolic array: substrate use by NHBE cells with or without CA09 infection
Format: cell-based, human
Conditions: for Substrate use, 590 nm absorbance normalized to zero hour, 1 hr: Biolog PMM2, 1 hr; for Substrate use, 590 nm absorbance normalized to zero hour, 5 hr: Biolog PMM2, 5 hr; for Substrate use, 590 nm absorbance normalized to zero hour, 7 hr: Biolog PMM2, 7 hr
[1] = Control (uninfected) NHBE cells
[2] = Virus (CA09-infected, MOI 1) NHBE cells
[3] = Virus: CA09-infected NHBE cells, MOI 1, Biolog PMM2
[4] = Virus (CA09, MOI 1) infected NHBE cells

Structure (SMILES) | 590 nm absorbance normalized to zero hour (substrate use), 1 hr [1] | 590 nm absorbance normalized to zero hour (substrate use), 2 hr [1] | 590 nm absorbance normalized to zero hour (substrate use), 3 hr [1] | 590 nm absorbance normalized to zero hour (substrate use), 4 hr [1] | 590 nm absorbance normalized to zero hour (substrate use), 6 hr [1] | 590 nm absorbance normalized to zero hour (substrate use), 8 hr [1] | 590 nm absorbance normalized to zero hour (substrate use), 9 hr [1] | 590 nm absorbance normalized to zero hour (substrate use), 10 hr [1] | 590 nm absorbance normalized to zero hour (substrate use), 11 hr [1] | Substrate use, 590 nm absorbance normalized to zero hour, 1 hr [1] | Substrate use, 590 nm absorbance normalized to zero hour, 5 hr [1] | Substrate use, 590 nm absorbance normalized to zero hour, 7 hr [1] | 590 nm absorbance normalized to zero hour (substrate use), 1 hr [2] | 590 nm absorbance normalized to zero hour (substrate use), 2 hr [2] | 590 nm absorbance normalized to zero hour (substrate use), 3 hr [2] | 590 nm absorbance normalized to zero hour (substrate use), 4 hr [2] | 590 nm absorbance normalized to zero hour (substrate use), 6 hr [2] | 590 nm absorbance normalized to zero hour (substrate use), 8 hr [2] | 590 nm absorbance normalized to zero hour (substrate use), 9 hr [2] | 590 nm absorbance normalized to zero hour (substrate use), 10 hr [2] | other results
COC(=O)C(C)=O [Methyl Pyruvate] | 1.32 | 1.57 | 1.25 | 1.36 | 0.77 | 1.65 | 1.74 | 1.79 | 1.76 | 1.32 | 1.59 | 1.51 | 1.93 | 2.20 | 2.60 | 2.51 | 2.87 | 3.03 | 3.24 | 3.21 | 590 nm absorbance normalized to zero hour (substrate use), 5 hr [2]: 2.66; 590 nm absorbance normalized to zero hour (substrate use), 7 hr [2]: 2.99; 590 nm absorbance normalized to zero hour (substrate use), 11 hr [2]: 3.04; 590 nm absorbance normalized to zero hour (substrate use), 1 hr [3]: 1.93; 590 nm absorbance normalized to zero hour (substrate use), 2 hr [3]: 2.20; 590 nm absorbance normalized to zero hour (substrate use), 3 hr [3]: 2.60; 590 nm absorbance normalized to zero hour (substrate use), 4 hr [3]: 2.51; 590 nm absorbance normalized to zero hour (substrate use), 5 hr [3]: 2.66; 590 nm absorbance normalized to zero hour (substrate use), 6 hr [3]: 2.87; 590 nm absorbance normalized to zero hour (substrate use), 7 hr [3]: 2.99; 590 nm absorbance normalized to zero hour (substrate use), 8 hr [3]: 3.03; 590 nm absorbance normalized to zero hour (substrate use), 9 hr [3]: 3.24; 590 nm absorbance normalized to zero hour (substrate use), 10 hr [3]: 3.21; 590 nm absorbance normalized to zero hour (substrate use), 11 hr [3]: 3.04
COC(=O)CCC(=O)O [Mono Methyl Succinate] | 1.07 | 1.14 | 1.10 | 1.10 | 0.53 | 1.09 | 1.11 | 1.11 | 1.11 | 1.07 | 1.13 | 1.07 | 1.44 | 1.71 | 1.97 | 2.04 | 2.33 | 2.45 | 2.58 | 2.55 | 590 nm absorbance normalized to zero hour (substrate use), 5 hr [2]: 2.16; 590 nm absorbance normalized to zero hour (substrate use), 7 hr [2]: 2.40; 590 nm absorbance normalized to zero hour (substrate use), 11 hr [2]: 2.67; 590 nm absorbance normalized to zero hour (substrate use), 1 hr [3]: 1.44; 590 nm absorbance normalized to zero hour (substrate use), 2 hr [3]: 1.71; 590 nm absorbance normalized to zero hour (substrate use), 3 hr [3]: 1.97; 590 nm absorbance normalized to zero hour (substrate use), 4 hr [3]: 2.04; 590 nm absorbance normalized to zero hour (substrate use), 5 hr [3]: 2.16; 590 nm absorbance normalized to zero hour (substrate use), 6 hr [3]: 2.33; 590 nm absorbance normalized to zero hour (substrate use), 7 hr [3]: 2.40; 590 nm absorbance normalized to zero hour (substrate use), 8 hr [3]: 2.45; 590 nm absorbance normalized to zero hour (substrate use), 9 hr [3]: 2.58; 590 nm absorbance normalized to zero hour (substrate use), 10 hr [3]: 2.55; 590 nm absorbance normalized to zero hour (substrate use), 11 hr [3]: 2.67
CC(=O)N[C@H]1C(O)O[C@H](CO)[C@@H](O)[C@@H]1O (stereo partly drawn) [N-Acetyl-D-Glucosamine] | 0.19 | 0.27 | 0.32 | 0.34 | 0.32 | 0.48 | 0.50 | 0.45 | 0.44 | 0.19 | 0.40 | 0.46 | 2.25 | 3.27 | 3.85 | 4.12 | 5.27 | 6.03 | 6.65 | 6.45 | Substrate use, 590 nm absorbance normalized to zero hour, 1 hr [4]: 2.25; Substrate use, 590 nm absorbance normalized to zero hour, 5 hr [4]: 4.99; Substrate use, 590 nm absorbance normalized to zero hour, 7 hr [4]: 5.67; 590 nm absorbance normalized to zero hour (substrate use), 11 hr [2]: 5.53
CC(=O)N[C@@H]1C(O)O[C@H](CO)[C@@H](O)[C@@H]1O (stereo partly drawn) [N-Acetyl-D-Mannosamine] | 0.90 | 0.77 | 0.71 | 0.68 | 0.65 | 0.63 | 0.58 | 0.67 | 0.66 | 0.90 | 0.68 | 0.61 | 1.40 | 1.88 | 2.13 | 2.22 | 2.70 | 3.09 | 3.29 | 3.34 | Substrate use, 590 nm absorbance normalized to zero hour, 1 hr [4]: 1.40; Substrate use, 590 nm absorbance normalized to zero hour, 5 hr [4]: 2.60; Substrate use, 590 nm absorbance normalized to zero hour, 7 hr [4]: 2.89; 590 nm absorbance normalized to zero hour (substrate use), 11 hr [2]: 3.55
